In US5077281A, “Novel use of taurolin” (priority 1985, dated 1991):
Values after ≈ are worked out from the molar mass of the structure shown. “Also recorded” adds a separate entry of the source.

How the values were obtained:
blood plasma [1] = experiment: suppression of blood coagulation on addition to blood plasma; type: biochemical, human; details: 5 ml. pooled plasma, up to max. 50 mg.
Protocol: (§1) Therefore, in comparison with known anti-coagulants, the use of taurolin has the advantage that a sufficient blood coagulatability always still remains and, therefore, an overdosing is not possible.
(§2) Samples of, in each case, 5 ml. of a pooled plasma of various experimental persons were mixed with increasing amounts of taurolin, namely, with amounts of 0 (1), 10 (2), 20 (3), 30 (4), 40 (5) and 50 (6) mg. of taurolin/5 ml. plasma (the figures given in brackets give the sample numbers).

coagulation factor XII = target: T1, coagulation factor XII (Homo sapiens, UniProt P00748); experiment: coagulation factor analysis in plasma; type: biochemical
T1 construct: clotting factor activity assay
T1 sequence (P00748 20-615): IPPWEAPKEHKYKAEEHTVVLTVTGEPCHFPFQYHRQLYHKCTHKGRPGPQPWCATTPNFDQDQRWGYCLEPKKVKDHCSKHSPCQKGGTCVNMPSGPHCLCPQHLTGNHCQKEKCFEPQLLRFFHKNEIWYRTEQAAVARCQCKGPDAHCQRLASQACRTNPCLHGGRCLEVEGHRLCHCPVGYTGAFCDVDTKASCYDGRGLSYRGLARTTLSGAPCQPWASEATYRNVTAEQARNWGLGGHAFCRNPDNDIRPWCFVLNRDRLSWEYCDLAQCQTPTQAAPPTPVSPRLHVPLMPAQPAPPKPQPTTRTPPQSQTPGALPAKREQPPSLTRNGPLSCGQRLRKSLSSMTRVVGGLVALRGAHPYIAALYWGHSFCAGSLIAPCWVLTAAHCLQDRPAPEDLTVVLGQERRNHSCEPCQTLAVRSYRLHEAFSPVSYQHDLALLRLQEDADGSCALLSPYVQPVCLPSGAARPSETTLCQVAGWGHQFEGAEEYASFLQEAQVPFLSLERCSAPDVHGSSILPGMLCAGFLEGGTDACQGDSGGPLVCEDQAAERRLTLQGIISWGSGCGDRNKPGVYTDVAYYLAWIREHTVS

blood plasma [2] = details: "Taurolin", Bruckner and Pfirrmann 1985; cited from earlier work
coagulation factor VIII = experiment: coagulation factor analysis in plasma; type: biochemical, human
[3] = tested on: blood coagula on the artificial surface; experiment: deposition of blood coagula on taurolin-contacted artificial surface in vivo; details: after contact of synthetic resin or metal surface with taurolin, implantation in organism with blood flow
Description: Therefore, this coagulation action can serve for the use of the taurolin for the treatment of surfaces of medical apparatus which are temporarily introduced into the blood stream, such as e.g. vein catheters (which, untreated, tend to blockage due to blood coagula which again represents a breeding place for bacteria, whereby the danger of a sepsis is brought about). The treatment of the apparatus can be carried out e.g. with an aqueous taurolin solution, especially a 1% aqueous taurolin solution. By means of an intermittent rinsing of vascular catheters, it is, in this way e.g. possible to prevent the coagula formation on the catheter tips.

coagulation factor V = experiment: coagulation factor analysis in plasma; type: biochemical, human
[4] = tested on: pooled plasma of various experimental persons; experiment: PTT test on pooled plasma mixed with taurolin; type: biochemical, human; details: for PTT: 30 minutes
Protocol: as §1, §2
(§3) The Quick test and the PTT test was carried out for the samples 1 to 6 and the following results (30 minutes) obtained (Table 1): […]

coagulation factor II = experiment: coagulation factor analysis in plasma; type: biochemical, human
coagulation factor X = experiment: coagulation factor analysis in plasma; type: biochemical, human
solubility = type: physicochemical; details: 50 mg./5 ml. blood plasma corresponds to a 1% solution; read-out: solubility limit
[5] = cited from earlier work
coagulation factor XI = experiment: coagulation factor analysis in plasma; type: biochemical, human
[6] = tested on: pooled plasma of various experimental persons; experiment: Quick test on pooled plasma mixed with taurolin; type: biochemical, human; details: for Quick test (%): 30 minutes
Protocol: as §1, §2, §3

coagulation factor VII = experiment: coagulation factor analysis in plasma; type: biochemical, human
antithrombin III = experiment: function of antithrombin III; type: biochemical
coagulation factor IX = experiment: coagulation factor analysis in plasma; type: biochemical, human
fresh blood = experiment: fibrin deposition on taurolin-treated cellulose acetate foils in contact with fresh blood; parameters: species or system human
[7] = 10 mg. taurolin/5 ml. plasma (sample 2)
[8] = 20 mg. taurolin/5 ml. plasma (sample 3)
[9] = 30 mg. taurolin/5 ml. plasma (sample 4)
[10] = 40 mg. taurolin/5 ml. plasma (sample 5)
[11] = 50 mg. taurolin/5 ml. plasma (sample 6)
[12] = maximum possible dosaging in the blood

Compound: heparin
- suppression of blood coagulation (blood plasma [1]): completely suppressed

Compound: O=S1(=O)CCN(CN2CCS(=O)(=O)NC2)CN1 [taurolin, 4,4'-Methylene-bis-(tetrahydro-2H-1,2,4-thiadiazine-1,1-dioxide)]
- direct action on the Factor XII of the coagulation system (coagulation factor XII): marked direct action
- activity at 2000 µg/mL (coagulation factor XII; human, 10 mg. taurolin/5 ml. plasma (sample 2)): 177%
- activity at 4000 µg/mL (coagulation factor XII; human, 20 mg. taurolin/5 ml. plasma (sample 3)): 77%
- activity at 6000 µg/mL (coagulation factor XII; human, 30 mg. taurolin/5 ml. plasma (sample 4)): 64%
- activity at 8000 µg/mL (coagulation factor XII; human, 40 mg. taurolin/5 ml. plasma (sample 5)): 55%
- activity at 10000 µg/mL (coagulation factor XII; human, 50 mg. taurolin/5 ml. plasma (sample 6)): 61%
- influence on blood coagulation as stated in the literature (blood plasma [2]): does not influence the blood coagulation
- coagulation factor VIII (coagulation factor VIII; [7]): 48%
- coagulation factor VIII (coagulation factor VIII; [8]): 21%
- coagulation factor VIII (coagulation factor VIII; [9]): 13%
- coagulation factor VIII (coagulation factor VIII; [10]): 6%
- coagulation factor VIII (coagulation factor VIII; [11]): 6%
- deposition of blood coagula on the artificial surface in vivo [3]: continuously effectively prevents the deposition of blood coagula; also recorded: effectively continuously prevents the deposition of blood coagula
- coagulation factor V (coagulation factor V; [7]): 121%
- coagulation factor V (coagulation factor V; [8]): 110%
- coagulation factor V (coagulation factor V; [9]): 92%
- coagulation factor V (coagulation factor V; [10]): 81%
- coagulation factor V (coagulation factor V; [11]): 79%
- PTT [4, 7]: 38.0 s
- PTT [4, 8]: 43.0 s
- PTT [4, 9]: 48.8 s
- PTT [4, 10]: 55.9 s
- PTT [4, 11]: 61.8 s
- PTT value (highest reached) [4, 12]: ≤ 60 s
- coagulation factor II (coagulation factor II; [7]): 96%
- coagulation factor II (coagulation factor II; [8]): 87%
- coagulation factor II (coagulation factor II; [9]): 90%
- coagulation factor II (coagulation factor II; [10]): 75%
- coagulation factor II (coagulation factor II; [11]): 74%
- coagulation factor X (coagulation factor X; [7]): 75%
- coagulation factor X (coagulation factor X; [8]): 65%
- coagulation factor X (coagulation factor X; [9]): 56%
- coagulation factor X (coagulation factor X; [10]): 53%
- coagulation factor X (coagulation factor X; [11]): 50%
- solubility (solubility): 10000 µg/mL (≈ 35.2 mM)
- solubility in water [5]: about 1%
- coagulation factor XI (coagulation factor XI; [7]): 301%
- coagulation factor XI (coagulation factor XI; [8]): 197%
- coagulation factor XI (coagulation factor XI; [9]): 140%
- coagulation factor XI (coagulation factor XI; [10]): 83%
- coagulation factor XI (coagulation factor XI; [11]): 47%
- Quick test (%) [6, 7]: 65%
- Quick test (%) [6, 8]: 53%
- Quick test (%) [6, 9]: 44%
- Quick test (%) [6, 10]: 39%
- Quick test (%) [6, 11]: 35%
- Quick value (lowest reached) [6, 12]: ≥ 20%
- coagulation factor VII (coagulation factor VII; [7]): 79%
- coagulation factor VII (coagulation factor VII; [8]): 74%
- coagulation factor VII (coagulation factor VII; [9]): 74%
- coagulation factor VII (coagulation factor VII; [10]): 77%
- coagulation factor VII (coagulation factor VII; [11]): 73%
- function of antithrombin III (antithrombin III): inhibits dependent upon concentration
- coagulation factor IX (coagulation factor IX; [7]): 153%
- coagulation factor IX (coagulation factor IX; [8]): 81%
- coagulation factor IX (coagulation factor IX; [9]): 63%
- coagulation factor IX (coagulation factor IX; [10]): 65%
- coagulation factor IX (coagulation factor IX; [11]): 68%
- suppression of blood coagulation (blood plasma [1]): not completely suppressed
- blood coagulation or fibrin deposition on the wall (fresh blood; cellulose acetate foil contacted with taurolin/blood plasma mixture (taurolin 1% in plasma), rinsed, fresh blood 30 minutes at 37° C.): no blood coagulation or fibrin deposition on the wall
- fibrin fibre deposition on the surface (electron raster photographs) (fresh blood; cellulose acetate foil treated with 15 aqueous solution of taurolin 30 minutes at 37° C., then fresh blood 30 minutes at 37° C.): no fibrin fibre deposition on the surface could be ascertained
